Among the data in PubChem BioAssay (NCI) are GI50 and TGI values, retold here.

Common to all, as to experiment: NCI tumour cell line growth inhibition, 48 h
In assay [1] the test system is HT29 colon.
Assay [2] deals with NCI-H522 lung.
The test system of assay [3] is NCI-H23 lung.
Assay [4] relates to M14 melanoma.
Assay [5] concerns HCT-116 colon.
Assay [6] deals with RXF 393 renal.
For assay [7], the system named is HCT-15 colon.
Assay [8] deals with OVCAR-4 ovarian.
Assay [9] has as its system MDA-MB-435.
For assay [10], the system named is HCC-2998 colon.

“And” between values parts separate entries of the source, which are not always exact repeats. Equal entries are not always repeated.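 Protocol summary: plate cells (96-well), add compound at 5 concentrations, incubate 48 h, interpolate endpoints linearly. GI50: concentration for 50% inhibition of growth. Definition used: TGI = concentration required for complete inhibition of growth.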

For `Cc1cccc(Cl)c1NC(=O)c1cnc(Nc2cc(N3CCOCC3)cc(N3CCOCC3)c2)s1`, the GI50 in assay [1] is 0.0181 µM; in assay [2], 0.0307 µM; in assay [3], > 9.24 µM; in assay [4] it was 4.18 µM; in assay [5], 0.0328 µM; in [6], 0.0123 µM. Moreover, the GI50 in assay [7] is 0.39 µM; in [8], > 4.05 µM; in assay [9] it was 4.08 µM; in assay [10], > 4.21 µM. For the same compound, the TGI was 0.19 µM in assay [1]; > 5.79 µM in assay [2]; > 10 µM in [3]; > 10 µM in assay [4]; > 10 µM in assay [5]; 0.153 µM in assay [6]. Also, the TGI in assay [7], in [8], in assay [9] and in [10] was > 10 µM each time.

`CC(=O)C1COC(O)C1C` (stereo not given): the TGI in [1] was > 100 µM; in [3], 31.7 µM; in [4] it was 61.1 µM; in assay [5], 39.6 µM; in assay [7] it was 44.4 µM; in assay [9], 30.2 µM.

On to `NC(=S)N/N=C/c1ccc(O)cn1`, for which the GI50 was 37.9 µM in assay [1]; 10.2 µM and 1.41 µM and 7 µM in assay [2]; 3.48 µM in assay [3]; 16.3 µM in assay [4]; 13.7 µM and 6.53 µM in [5]; 20.5 µM and 83.3 µM and 14.6 µM in [6]. In addition, the GI50 in assay [7] is 22.1 µM and 13.3 µM. Also, the TGI is > 929 µM in assay [1]; 35.6 µM and 25.6 µM in assay [4]; > 1500 µM and 369 µM in assay [5]; > 1500 µM and 552 µM in assay [6]; > 1130 µM in assay [9].

Turning to `CCCCOC(=O)c1ccc(NC(=O)CCl)cc1`, the GI50 in assay [1] was 1.9 µM; in assay [2], 1.74 µM; in [3], 2.4 µM; in assay [4], 3.07 µM; in assay [5], 1.29 µM; in assay [6], 1.55 µM. The GI50 is 1.43 µM in assay [7], 3.5 µM in [9] and 15.6 µM in [10]. The TGI in [1] stood at 3.48 µM; in assay [2] it was 3.57 µM; in [3] it was 7.47 µM; in assay [4], 12.7 µM; in assay [5], 2.86 µM; in [6] it was 3.19 µM. For the same compound, the TGI in [7] was 3.19 µM; in [9], 14.3 µM; in assay [10] it was 32.7 µM.

For `COc1ccc2nc(NCN3C(=O)c4ccccc4C3=O)sc2c1`, the TGI in assay [1], in assay [2], in assay [3], in [4], in assay [5] and in [6] was > 100 µM in each case. In addition, the TGI in [7], in assay [8] and in [9] was > 100 µM throughout.

As for `CC1(C)N=C(N)N=C(N)N1c1ccc(CCc2ccc(Cl)cc2S(=O)(=O)F)c(Cl)c1`, the GI50 is 6.51 µM in [3]; 6.2 µM in assay [4]; 2.56 µM in assay [5]; 23 µM in assay [6]; 92.8 µM in assay [7]; 9.09 µM in assay [8]. For the same compound, the GI50 is 4.27 µM in assay [9] and 11.8 µM in assay [10]. The TGI was > 100 µM in assay [3]; > 100 µM in [4]; 16.2 µM in assay [5]; > 100 µM in [6]; > 100 µM in [7]; 84.5 µM in assay [8]. Moreover, the TGI in [9] was found to be 25.4 µM; in [10], 45.9 µM.

Regarding `CN1CCN(C(=O)c2c(NC(=O)NS(=O)(=O)c3ccccc3)sc3c2CCCCC3)CC1`, the GI50 in assay [2] was 30.4 µM; in [3], 24.3 µM; in assay [4], 21.6 µM; in assay [6] it was 34 µM; in [7], 26.3 µM; in assay [9], 26.2 µM. In addition, the GI50 in assay [10] was 21.9 µM. For the same compound, the TGI was 98.6 µM in assay [2]; 52.1 µM in assay [3]; 49.8 µM in [4]; > 100 µM in assay [6]; 74.6 µM in [7]; 67.8 µM in assay [9]. For the same compound, the TGI in assay [10] stood at 44.2 µM.

For `COc1cc2cc3c4c(cc(OC)c(OC)c4c2cc1OC)CCN3C(=O)N(C)C`, the TGI in assay [1] was > 100 µM; in assay [2], > 100 µM; in [3], > 10 µM; in assay [4], > 10 µM; in assay [5], > 100 µM; in assay [6] it was > 100 µM. Also, the TGI in [7], in assay [8] and in assay [10] was > 100 µM each time.

Regarding `NC(=O)C(=Cc1ccc(CP(=O)(O)O)cc1)C(N)=O`, the TGI in assay [1], in assay [2], in assay [3], in assay [4], in assay [5] and in [6] was > 100 µM in each case. Also, the TGI in [7], in assay [8] and in [10] was > 100 µM each time.

With `CCC(=O)C(C)C(=O)C(=O)C(=O)OC` (stereo not given), the TGI was > 100 µM in [1]; > 100 µM in [2]; > 100 µM in [3]; > 100 µM in assay [4]; > 100 µM in [5]; 99.3 µM in assay [6]. The TGI in [7], in assay [8] and in assay [10] was > 100 µM each time.

Take `Cc1ccc(C(=O)/C(=C\c2ccc([N+](=O)[O-])cc2)S(=O)Cc2ccc(F)cc2)cc1` (stereo not given): the GI50 in assay [2] is 1.55 µM; in assay [3], 1.69 µM; in [4] it was 1.44 µM; in assay [5], 0.499 µM; in assay [6], 1.78 µM; in assay [7] it was 1.45 µM. For the same compound, the GI50 in assay [8] was 1.73 µM; in assay [9], 1.76 µM; in [10], 1.77 µM. Moreover, the TGI in [2] is 3.01 µM; in assay [3], 3.36 µM; in assay [4], 2.89 µM; in assay [5] it was 1.79 µM; in assay [6] it was 3.28 µM; in assay [7] it was 3.5 µM. For the same compound, the TGI stood at 3.54 µM in [8], 3.65 µM in assay [9] and 3.24 µM in assay [10].
